# According to patent US10918601B2, “Spray-dried pharmaceutical compositions comprising active agent nanoparticles” (Besins Healthcare Luxembourg SARL, priority 2013, dated 2021):
# Test: Particle size of mometasone furoate before milling, after roller milling and after spray drying
# Format: physicochemical
# Conditions: before roller milling
# Description: Spray Drying Conditions: Inlet temperature=110° C.; Outlet temperature=54° C.; Aspirator=100%; Pump rate=20%; Q flow=50%; Nozzle cap=1.5 mm.
# Roller Milling Conditions: Mometasone Furoate—initial median size—19.7 μm. Samples are milled in 250 mL jars for 3 hours with 0.5 mm YTZ media. Particle size diameter (PSD), after 3 hours milling, is measured in water. After milling, the suspension is extracted (needle 22G) from jars and mixed according the table and procedure shown. Procedure for Preparation of the Spray Drying Suspensions: The amounts of HPMC, MCC and H2O used is based on the extracted quantity of the suspension (Table II). HPMC is added as a solution prepared in H2O. HPMC solution is added to the extracted suspension and mixed for 15 minutes. MCC (Grade PH-F20JP, 20 μm) is added and mixed for 15 minutes. Particle size diameter (PSD) is measured after spray drying by dispersing the spray-dried powder in a liquid such as isopropyl palmitate or silicone oil, which are non-solvents for the components and will not alter particle size or cause disintegration of the composite particle. Materials: Mometasone Furoate (Hovione, East Windsor, N.J.); Citric acid, anhydrous (Fisher, Hampton, N.H.); Benzalkonium chloride (Fluka, St. Louis, Mo.); Microcrystalline cellulose (AsahKasei, Glenview, Ill.); Hydroxypropylmethyl cellulose (Colorcon, Harleysville, Pa.). […]
structure (smiles),measurement,value
"C[C@@H]1C[C@H]2[C@@H]3CCC4=CC(=O)C=C[C@]4(C)[C@@]3(Cl)[C@@H](O)C[C@]2(C)[C@@]1(OC(=O)c1ccco1)C(=O)CCl [Mometasone Furoate, (11β,16α)-9,21-dichloro-11-hydroxy-16-methyl-3,20-dioxopregna-1,4-dien-17-yl 2-furoate]",initial median size,19.7 μm
